Assay results reported in patent publication US9499550B2 (BRISTOL-MYERS SQUIBB COMPANY, priority 2012, dated 2016).
Where two headings read alike, the source gives them in different places.

Tests used:
[1] = test system: HCV genotype 1a (H77 strain) replicon in HUH-7 cells; test: HCV replicon luciferase reporter assay, genotype 1a; assay type: cell-based; conditions: Hepatitis C virus, Huh-7, 72 h, HCV genotype 1a replicon luciferase, 3 days incubation, read-out: LE_1a (EC50, range)
Method in brief: (§1)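 Replicon inhibition for both genotypes was measured as Renilla luciferase signal (EnduRen, 7.5 μM final, 2 h) after 3-day, 37° C exposure of replicon-bearing HUH-7 cells in 4% FCS DMEM, 0.5% DMSO. The 1b construct carries S1179I; the 1a H77 construct carries P1496L and S2204I. Twenty-point, 3-fold dilutions were fitted four-parametrically for EC50, and CC50 was taken from multiplexed Cell Titer-Blue.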

[2] = test system: HCV genotype 1b (Con1) replicon in HUH-7 cells; test: HCV replicon luciferase reporter assay, genotype 1b; assay type: cell-based; conditions: Hepatitis C virus, Huh-7, 72 h, HCV genotype 1b replicon luciferase, 3 days incubation, read-out: LE_1b (EC50, range)
Method in brief: as §1

With CCOc1cnc(O[C@@H]2C[C@H]3C(=O)N[C@]4(C(=O)NS(=O)(=O)C5(CF)CC5)C[C@H]4/C=C\CC[C@@H](C)C[C@@H](C)[C@H](NC(=O)OC(C)(C)C(F)(F)F)C(=O)N3C2)c2ccc(OC)cc12 [Compound 4104] the EC50 ([1]; GETYPE1A) was less than 5.46 nM and the EC50 ([2]; GETYPE1B) was less than 5.46 nM.

Compound CCOc1cnc(O[C@@H]2C[C@H]3C(=O)N[C@]4(C(=O)NS(=O)(=O)C5(CF)CC5)C[C@H]4/C=C\CC[C@@H](C)C[C@@H](C)[C@H](NC(=O)OC(C)(C)C)C(=O)N3C2)c2ccc(OC)cc12 [Compound 4105, tert-butyl (2R,6S,7R,9R,13aS,14aR,16aS,Z)-2-(4-ethoxy-6-methoxyisoquinolin-1-yloxy)-14a-(1-(fluoromethyl)cyclopropylsulfonylcarbamoyl)-7,9-dimethyl-5,16-dioxo-1,2,3,5,6,7,8,9,10,11,13a,14,14a,15,16,16a-hexadecahydrocyclopropa[e]pyrrolo[1,2-a][1,4]diazacyclopentadecin-6-ylcarbamate] has an EC50 [1] of less than 5.46 nM and an EC50 [2] of less than 5.46 nM.

COc1ccc2c(O[C@@H]3C[C@H]4C(=O)N[C@]5(C(=O)NS(=O)(=O)C6(C)CC6)C[C@H]5/C=C\CC[C@@H](C)C[C@@H](C)[C@H](NC(=O)OC(C)(C)C(F)(F)F)C(=O)N4C3)ncc(OC(=O)OC(C)(C)C(F)(F)F)c2c1 [Compound 4106] gave an EC50 ([1]; GETYPE1A) of 4.82 to 103 nM and an EC50 ([2]; GETYPE1B) of 4.82 to 103 nM.

COc1ccc2nc(O[C@@H]3C[C@H]4C(=O)N[C@]5(C(=O)NS(=O)(=O)C6(CF)CC6)C[C@H]5/C=C\CC[C@@H](C)C[C@@H](C)[C@H](NC(=O)OC(C)(C)C(F)(F)F)C(=O)N4C3)c(C)nc2c1 [Compound 4107] was tested, and the EC50 ([1]; GETYPE1A) was less than 5.46 nM and the EC50 ([2]; GETYPE1B) was less than 5.46 nM.

COc1ccc2nc(C)c(O[C@@H]3C[C@H]4C(=O)N[C@]5(C(=O)NS(=O)(=O)C6(CF)CC6)C[C@H]5/C=C\CC[C@@H](C)C[C@@H](C)[C@H](NC(=O)OC(C)(C)C(F)(F)F)C(=O)N4C3)nc2c1 [Compound 4108] gave an EC50 ([1]; GETYPE1A) of less than 5.46 nM and an EC50 ([2]; GETYPE1B) of less than 5.46 nM.

COc1ccc2nc(C)c(O[C@@H]3C[C@H]4C(=O)N[C@]5(C(=O)NS(=O)(=O)C6(C)CC6)C[C@H]5/C=C\CC[C@@H](C)C[C@@H](C)[C@H](NC(=O)OC(C)(C)C)C(=O)N4C3)nc2c1 [Compound 4109, tert-butyl (2R,6S,7R,9R,13aS,14aR,16aS,Z)-2-(7-methoxy-3-methylquinoxalin-2-yloxy)-7,9-dimethyl-14a-(1-methylcyclopropylsulfonylcarbamoyl)-5,16-dioxo-1,2,3,5,6,7,8,9,10,11,13a,14,14a,15,16,16a-hexadecahydrocyclopropa[e]pyrrolo[1,2-a][1,4]diazacyclopentadecin-6-ylcarbamate] was tested, and the EC50 [1] was less than 5.46 nM and the EC50 [2] was less than 5.46 nM.

COc1cnc(O[C@@H]2C[C@H]3C(=O)N[C@]4(C(=O)NS(=O)(=O)C5(CO)CC5)C[C@H]4/C=C\CC[C@@H](C)C[C@@H](C)[C@H](NC(=O)OC(C)(C)C(F)(F)F)C(=O)N3C2)c2ccccc12 [Compound 4110] showed an EC50 ([1]; GETYPE1A) of 4.82 to 103 nM and an EC50 ([2]; GETYPE1B) of 4.82 to 103 nM.

In the case of COc1cnc(O[C@@H]2C[C@H]3C(=O)N[C@]4(C(=O)NS(=O)(=O)C5(CO)CC5)C[C@H]4/C=C\CC[C@H](C)C[C@@H](C)[C@H](NC(=O)OC(C)(C)C(F)(F)F)C(=O)N3C2)c2ccccc12 [Compound 4111], the EC50 ([1]; GETYPE1A) is reported as greater than 87.4 nM and the EC50 ([2]; GETYPE1B) is reported as 4.82 to 103 nM.

COc1cnc(O[C@@H]2C[C@H]3C(=O)N[C@]4(C(=O)NS(=O)(=O)C5(CO)CC5)C[C@H]4/C=C\CC[C@@H](C)C[C@@H](C)[C@H](N)C(=O)N3C2)c2ccccc12 [Compound 4112, (2R,6S,7R,9R,13aS,14aR,16aS,Z)-6-amino-N-(1-(hydroxymethyl)cyclopropylsulfonyl)-2-(4-methoxyisoquinolin-1-yloxy)-7,9-dimethyl-5,16-dioxo-1,2,3,5,6,7,8,9,10,11,13a,14,14a,15,16,16a-hexadecahydrocyclopropa[e]pyrrolo[1,2-a][1,4]diazacyclopentadecine-14a-carboxamide] showed an EC50 [1] greater than 87.4 nM and an EC50 [2] greater than 87.4 nM.

COc1cnc(O[C@@H]2C[C@H]3C(=O)N[C@]4(C(=O)NS(=O)(=O)C5(CO)CC5)C[C@H]4/C=C\CC[C@H](C)C[C@@H](C)[C@H](N)C(=O)N3C2)c2ccccc12 [Compound 4113, (2R,6S,7R,9S,13aS,14aR,16aS,Z)-6-amino-N-(1-(hydroxymethyl)cyclopropylsulfonyl)-2-(4-methoxyisoquinolin-1-yloxy)-7,9-dimethyl-5,16-dioxo-1,2,3,5,6,7,8,9,10,11,13a,14,14a,15,16,16a-hexadecahydrocyclopropa[e]pyrrolo[1,2-a][1,4]diazacyclopentadecine-14a-carboxamide] was tested, and the EC50 [1] was greater than 87.4 nM and the EC50 [2] was greater than 87.4 nM.

COc1cnc(O[C@@H]2C[C@H]3C(=O)N[C@]4(C(=O)NS(=O)(=O)C5(CO)CC5)C[C@H]4/C=C\CC[C@@H](C)C[C@@H](C)[C@H](NC(=O)OC(C)(C)C)C(=O)N3C2)c2ccccc12 [Compound 4114, tert-butyl (2R,6S,7R,9R,13aS,14aR,16aS,Z)-14a-(1-(hydroxymethyl)cyclopropylsulfonylcarbamoyl)-2-(4-methoxyisoquinolin-1-yloxy)-7,9-dimethyl-5,16-dioxo-1,2,3,5,6,7,8,9,10,11,13a,14,14a,15,16,16a-hexadecahydrocyclopropa[e]pyrrolo[1,2-a][1,4]diazacyclopentadecin-6-ylcarbamate] was tested, and the EC50 [1] was 4.82 to 103 nM and the EC50 [2] was 4.82 to 103 nM.

For COc1cnc(O[C@@H]2C[C@H]3C(=O)N[C@]4(C(=O)NS(=O)(=O)C5(CO)CC5)C[C@H]4/C=C\CC[C@H](C)C[C@@H](C)[C@H](NC(=O)OC(C)(C)C)C(=O)N3C2)c2ccccc12 [Compound 4115, tert-butyl (2R,6S,7R,9S,13aS,14aR,16aS,Z)-14a-(1-(hydroxymethyl)cyclopropylsulfonylcarbamoyl)-2-(4-methoxyisoquinolin-1-yloxy)-7,9-dimethyl-5,16-dioxo-1,2,3,5,6,7,8,9,10,11,13a,14,14a,15,16,16a-hexadecahydrocyclopropa[e]pyrrolo[1,2-a][1,4]diazacyclopentadecin-6-ylcarbamate], the EC50 [1] was less than 5.46 nM and the EC50 [2] was less than 5.46 nM.

COc1cc2c(OC)cnc(O[C@@H]3C[C@H]4C(=O)N[C@]5(C(=O)NS(=O)(=O)C6(CF)CC6)C[C@H]5/C=C\CC[C@@H](C)C[C@@H](C)[C@H](NC(=O)C(C)(C)C)C(=O)N4C3)c2cc1F [Compound 4116, (2R,6S,7R,9R,13aS,14aR,16aS,Z)-2-(7-fluoro-4,6-dimethoxyisoquinolin-1-yloxy)-N-(1-(fluoromethyl)cyclopropylsulfonyl)-7,9-dimethyl-5,16-dioxo-6-pivalamido-1,2,3,5,6,7,8,9,10,11,13a,14,14a,15,16,16a-hexadecahydrocyclopropa[e]pyrrolo[1,2-a][1,4]diazacyclopentadecine-14a-carboxamide] was tested, and the EC50 [1] was less than 5.46 nM and the EC50 [2] was less than 5.46 nM.

Work on COc1cc2c(OC)cnc(O[C@@H]3C[C@H]4C(=O)N[C@]5(C(=O)NS(=O)(=O)C6(CF)CC6)C[C@H]5/C=C\CC[C@@H](C)C[C@@H](C)[C@H](NC(=O)c5c(F)cc(F)cc5F)C(=O)N4C3)c2cc1F [Compound 4117, (2R,6S,7R,9R,13aS,14aR,16aS,Z)-2-(7-fluoro-4,6-dimethoxyisoquinolin-1-yloxy)-N-(1-(fluoromethyl)cyclopropylsulfonyl)-7,9-dimethyl-5,16-dioxo-6-(2,4,6-trifluorobenzamido)-1,2,3,5,6,7,8,9,10,11,13a,14,14a,15,16,16a-hexadecahydrocyclopropa[e]pyrrolo[1,2-a][1,4]diazacyclopentadecine-14a-carboxamide] yielded an EC50 [1] of less than 5.46 nM and an EC50 [2] of less than 5.46 nM.

Work on COc1cc2c(OC)cnc(O[C@@H]3C[C@H]4C(=O)N[C@]5(C(=O)NS(=O)(=O)C6(CF)CC6)C[C@H]5/C=C\CC[C@@H](C)C[C@@H](C)[C@H](NC(=O)c5ccc(F)cc5F)C(=O)N4C3)c2cc1F [Compound 4118, (2R,6S,7R,9R,13aS,14aR,16aS,Z)-6-(2,4-difluorobenzamido)-2-(7-fluoro-4,6-dimethoxyisoquinolin-1-yloxy)-N-(1-(fluoromethyl)cyclopropylsulfonyl)-7,9-dimethyl-5,16-dioxo-1,2,3,5,6,7,8,9,10,11,13a,14,14a,15,16,16a-hexadecahydrocyclopropa[e]pyrrolo[1,2-a][1,4]diazacyclopentadecine-14a-carboxamide] yielded an EC50 [1] of less than 5.46 nM and an EC50 [2] of less than 5.46 nM.

For COc1cc2c(OC)cnc(O[C@@H]3C[C@H]4C(=O)N[C@]5(C(=O)NS(=O)(=O)C6(CF)CC6)C[C@H]5/C=C\CC[C@@H](C)C[C@@H](C)[C@H](NC(=O)C5(C(F)(F)F)CC5)C(=O)N4C3)c2cc1F [Compound 4119, (2R,6S,7R,9R,13aS,14aR,16aS,Z)-2-(7-fluoro-4,6-dimethoxyisoquinolin-1-yloxy)-N-(1-(fluoromethyl)cyclopropylsulfonyl)-7,9-dimethyl-5,16-dioxo-6-(1-(trifluoromethyl)cyclopropanecarboxamido)-1,2,3,5,6,7,8,9,10,11,13a,14,14a,15,16,16a-hexadecahydrocyclopropa[e]pyrrolo[1,2-a][1,4]diazacyclopentadecine-14a-carboxamide], the EC50 [1] was less than 5.46 nM and the EC50 [2] was less than 5.46 nM.

COc1ccc2c(O[C@@H]3C[C@H]4C(=O)N[C@]5(C(=O)NS(=O)(=O)C6(CF)CC6)C[C@H]5/C=C\CC[C@@H](C)C[C@@H](C)[C@H](NC(=O)OC(C)(C)C(F)(F)F)C(=O)N4C3)ncc(N3CCOCC3)c2c1 [Compound 4120] gave an EC50 [1] of less than 5.46 nM and an EC50 [2] of less than 5.46 nM.
